According to patent US12486303B2, “Use of peptide for inhibiting functions and expressions of multiple disease biomarkers” (NIBEC CO., LTD., priority 2018, dated 2025):

Columns and labels:
HDAC5 protein = biological target: T1, HDAC5 protein (Homo sapiens, UniProt Q9UQL6); assay: Biacore T200 binding affinity to immobilised HDAC5 protein; details: CM5 chip, 1:1 binding model
T1 construct: purchased Abcam
Description: For this purpose, HDAC5 protein (Abcam, MA, USA) was dissolved in sodium acetate buffer (pH 4.5), and was bound to a dextran-covered sensor chip surface (CM5 chip) using N-hydroxysuccinimide (NHS) and N-ethyl-N0-(3-dimethylaminopropyl)-carbodiimide hydrochloride (EDAC) as crosslinkers. The unreacted active group of dextran was blocked by the addition of ethanolamine (1M) thereto. The number of HDAC5 binding to the chip was measured as 4440RU (1000 RU=1 ng/mm^2). […] Rate constants for association (ka) and dissociation (kd), and a dissociation constant (KD) were calculated using BIAevaluation software and a 1:1 binding model.

[1] = tested on: TNBS-induced colitis rats; assay: TNBS colitis-induced animal model; type: in vivo
Description: In order to determine whether or not the peptide according to the present invention has the effect of treating inflammatory colitis in vivo, the effect of treating colitis in a colitis-induced animal model was detected. Before induction of colitis, rats were allowed to drink water freely, although food was not supplied thereto for 24 hours. The rats were lightly anesthetized with ether. A rubber cannula (o.d., 2 mm) was inserted into the colon, the end of which was about 8 cm away from the anus and was located near the splenic flexure. 2,4,6-trinitro benzene sulfonic acid (TNBS; Sigma Chemical Co, St Louis, Missouri, USA) dissolved in a 50% (v/v) ethanolic aqueous solution was injected into the colon through the rubber cannula (15 mg/0.3 mL/rat). 72 hours after induction of colitis, the peptide of SEQ ID NO: 1 (30 mg/kg) was intraperitoneally injected once a day, and after administration for 7 days, the rats were sacrificed. The weight of the rats was measured at 9 AM every day, and the length of the colon was measured from the cecum to the anus using a vernier caliper (Mitutoyo, Japan) after rat sacrifice.
The extracted large intestine was frozen and stored at −70° ° C., the mucous membrane tissue was collected from the muscle layer of the large intestine, the weight of the mucous membrane tissue was measured, and 10 mg of the mucous membrane tissue was lysed in a triple wash buffer (50 mM Tris-HCl, pH 8.0, 150 mM NaCl, 0.1% sodium deoxycholate and 1 mM phenylmethysulfonyl and homogenized. Then, p40, TNF-α, and IL-12 were assayed using an ELISA kit (R&D, Minneapolis, MN, USA).

T1 sequence (Q9UQL6 whole entry, species assumed): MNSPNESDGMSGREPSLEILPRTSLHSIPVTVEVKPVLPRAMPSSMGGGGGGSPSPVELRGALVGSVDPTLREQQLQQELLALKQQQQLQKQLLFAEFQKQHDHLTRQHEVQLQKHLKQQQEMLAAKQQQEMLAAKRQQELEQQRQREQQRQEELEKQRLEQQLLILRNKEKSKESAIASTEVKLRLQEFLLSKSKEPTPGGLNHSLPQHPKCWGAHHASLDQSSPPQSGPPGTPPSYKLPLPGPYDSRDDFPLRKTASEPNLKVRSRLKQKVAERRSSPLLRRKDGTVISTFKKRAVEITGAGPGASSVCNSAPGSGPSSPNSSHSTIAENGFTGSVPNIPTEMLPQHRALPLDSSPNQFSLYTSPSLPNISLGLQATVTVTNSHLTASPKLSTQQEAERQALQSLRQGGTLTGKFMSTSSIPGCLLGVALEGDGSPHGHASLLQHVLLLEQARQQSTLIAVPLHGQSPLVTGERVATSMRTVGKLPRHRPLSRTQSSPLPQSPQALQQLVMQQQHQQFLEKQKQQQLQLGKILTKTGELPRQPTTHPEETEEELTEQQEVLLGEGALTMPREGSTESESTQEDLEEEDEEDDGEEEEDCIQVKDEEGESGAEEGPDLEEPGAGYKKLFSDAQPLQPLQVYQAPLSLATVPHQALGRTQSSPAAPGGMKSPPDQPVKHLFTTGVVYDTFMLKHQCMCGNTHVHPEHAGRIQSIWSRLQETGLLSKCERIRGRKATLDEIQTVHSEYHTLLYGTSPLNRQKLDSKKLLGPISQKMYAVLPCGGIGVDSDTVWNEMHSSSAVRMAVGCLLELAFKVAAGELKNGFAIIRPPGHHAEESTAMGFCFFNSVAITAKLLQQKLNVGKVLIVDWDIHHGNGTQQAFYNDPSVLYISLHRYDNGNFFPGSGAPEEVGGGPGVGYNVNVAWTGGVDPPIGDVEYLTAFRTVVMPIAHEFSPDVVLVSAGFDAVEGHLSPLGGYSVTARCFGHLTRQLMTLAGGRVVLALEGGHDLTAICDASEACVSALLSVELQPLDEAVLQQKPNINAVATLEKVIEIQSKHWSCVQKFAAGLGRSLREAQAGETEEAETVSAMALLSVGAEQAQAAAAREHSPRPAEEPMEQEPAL

C[C@@H](O)[C@H](NC(=O)[C@H](CO)NC(=O)[C@H](CS)NC(=O)[C@H](CCCCN)NC(=O)CN)C(=O)N[C@@H](CCCNC(=N)N)C(=O)NCC(=O)N[C@@H](CCCNC(=N)N)C(=O)N[C@@H](CCCCN)C(=O)N[C@@H](CS)C(=O)N[C@@H](CS)C(=O)N[C@@H](CCCNC(=N)N)C(=O)N[C@@H](CCCNC(=N)N)C(=O)N[C@@H](CCCCN)C(=O)N[C@@H](CCCCN)C(=O)O [SEQ ID NO: 1]
kd (HDAC5 protein): 0.07264 s⁻¹
kon (HDAC5 protein; read-out: ka): 108000 M⁻¹ s⁻¹
Expression of IL-12 in large intestine mucous membrane tissue (ELISA) ([1]; 30 mg/kg intraperitoneally): decreased
Expression of TNF-α in large intestine mucous membrane tissue (ELISA) ([1]; 30 mg/kg intraperitoneally): decreased
Expression of p40 in large intestine mucous membrane tissue (ELISA) ([1]; 30 mg/kg intraperitoneally): decreased
Visual observation of large intestine ([1]; 30 mg/kg intraperitoneally once a day, 7 days, 8th day): appeared similar to the normal group (CON), indicating that colitis was remarkably suppressed
